Results published in article PMC4032193 (Journal of Medicinal Chemistry, 2014).
pIC50: −log10 of the molar value.

System: HepG2 (hepatocellular carcinoma) cell line
Settings: human

| Compound | SI HepG2/D6 | SI HepG2/TM91C235 | SI HepG2/W2 | pIC50 |
| --- | --- | --- | --- | --- |
| CC(=O)O[C@H]1C[C@H]2[C@@H]([C@H](OC(C)=O)C[C@@H]3CC(NCCCNc4ccnc5cc(Cl)ccc45)CC[C@@]32C)[C@@H]2CC[C@H]([C@H](C)CCCNCCCNc3ccnc4cc(Cl)ccc34)[C@@]12C (mixture of isomers) [Compound 63] | 43/32/24 | 43/32/24 | 43/32/24 | – |
| CC(=O)O[C@@H]1CC[C@@]2(C)[C@@H](C1)C[C@@H](OC(C)=O)[C@@H]1[C@@H]2C[C@H](OC(C)=O)[C@]2(C)[C@@H]([C@H](C)CCCNCCCNc3ccnc4cc(Cl)ccc34)CC[C@@H]12 [Compound 13] | 104/101/67 | 104/101/67 | 104/101/67 | – |
| CC(=O)O[C@@H]1CC[C@@]2(C)[C@@H](C1)C[C@@H](OC(C)=O)[C@@H]1[C@@H]2C[C@H](OC(C)=O)[C@]2(C)[C@@H]([C@H](C)CCCNCCCCNc3ccnc4cc(Cl)ccc34)CC[C@@H]12 [Compound 14] | 107/55/47 | 107/55/47 | 107/55/47 | – |
| CC(=O)O[C@@H]1CC[C@@]2(C)[C@@H](C1)C[C@@H](OC(C)=O)[C@@H]1[C@@H]2C[C@H](OC(C)=O)[C@]2(C)[C@@H]([C@H](C)CCCNCCCCCCNc3ccnc4cc(Cl)ccc34)CC[C@@H]12 [Compound 15] | 47/29/25 | 47/29/25 | 47/29/25 | – |
| CC(=O)O[C@H]1C[C@H]2[C@@H]([C@H](OC(C)=O)C[C@@H]3C[C@H](O)CC[C@@]32C)[C@@H]2CC[C@H]([C@H](C)CCCNCCNc3ccnc4cc(Cl)ccc34)[C@@]12C [Compound 16, N-(3α-Hydroxy-7α,12α-diacetoxy-5β-cholan-24-yl)-N′-(7′-chloroquinolin-4′-yl)ethane-1,2-diamine] | 415/938/407 | 415/938/407 | 415/938/407 | – |
| CC(=O)O[C@H]1C[C@H]2[C@@H]([C@H](OC(C)=O)C[C@@H]3C[C@H](O)CC[C@@]32C)[C@@H]2CC[C@H]([C@H](C)CCCNCCCCNc3ccnc4cc(Cl)ccc34)[C@@]12C [Compound 18] | 47/30/28 | 47/30/28 | 47/30/28 | – |
| CC(=O)O[C@H]1C[C@H]2[C@@H]([C@H](OC(C)=O)C[C@@H]3C[C@H](O)CC[C@@]32C)[C@@H]2CC[C@H]([C@H](C)CCCNCCCCCCNc3ccnc4cc(Cl)ccc34)[C@@]12C [Compound 19] | 60/56/50 | 60/56/50 | 60/56/50 | – |
| CC(=O)O[C@@H]1CC[C@@]2(C)[C@@H](C1)C[C@@H](OC(C)=O)[C@@H]1[C@@H]2C[C@H](OC(C)=O)[C@]2(C)[C@@H]([C@H](C)CCCN(C)CCNc3ccnc4cc(Cl)ccc34)CC[C@@H]12 [Compound 20, N-Methyl-N-(3α,7α,12α-triacetoxy-5β-cholan-24-yl)-N′-(7′-chloroquinolin-4′-yl)ethane-1,2-diamine] | 98/242/79 | 98/242/79 | 98/242/79 | – |
| CC(=O)O[C@@H]1CC[C@@]2(C)[C@@H](C1)C[C@@H](OC(C)=O)[C@@H]1[C@@H]2C[C@H](OC(C)=O)[C@]2(C)[C@@H]([C@H](C)CCCN(C)CCCNc3ccnc4cc(Cl)ccc34)CC[C@@H]12 [Compound 21] | 134/229/71 | 134/229/71 | 134/229/71 | – |
| CC(=O)O[C@H]1C[C@H]2[C@@H]([C@H](OC(C)=O)C[C@@H]3CC(=O)CC[C@@]32C)[C@@H]2CC[C@H]([C@H](C)CCCNCCNc3ccnc4cc(Cl)ccc34)[C@@]12C [Compound 22, N-(3-Oxo-7α,12α-diacetoxy-5β-cholan-24-yl)-N′-(7′-chloroquinolin-4′-yl)ethane-1,2-diamine] | 299/571/109 | 299/571/109 | 299/571/109 | – |
| CC(=O)O[C@H]1C[C@H]2[C@@H]([C@H](OC(C)=O)C[C@@H]3CC(=O)CC[C@@]32C)[C@@H]2CC[C@H]([C@H](C)CCCNCCCNc3ccnc4cc(Cl)ccc34)[C@@]12C [Compound 23] | 161/182/121 | 161/182/121 | 161/182/121 | – |
| CC(=O)O[C@H]1C[C@H]2[C@@H]([C@H](OC(C)=O)C[C@@H]3CC(=O)CC[C@@]32C)[C@@H]2CC[C@H]([C@H](C)CCCNCCCCNc3ccnc4cc(Cl)ccc34)[C@@]12C [Compound 24] | 7/6/6 | 7/6/6 | 7/6/6 | – |
| CC(=O)O[C@H]1C[C@H]2[C@@H]([C@H](OC(C)=O)C[C@@H]3CC(=O)CC[C@@]32C)[C@@H]2CC[C@H]([C@H](C)CCCNCCCCCCNc3ccnc4cc(Cl)ccc34)[C@@]12C [Compound 25] | 30/27/25 | 30/27/25 | 30/27/25 | – |
| CC(=O)N[C@@H]1CC[C@@]2(C)[C@@H](C1)C[C@@H](OC(C)=O)[C@@H]1[C@@H]2C[C@H](OC(C)=O)[C@]2(C)[C@@H]([C@H](C)CCCNCCNc3ccnc4cc(Cl)ccc34)CC[C@@H]12 [Compound 36, 24-N-[(7-Chloroquinoline-4-yl)amino]ethylamino-3α-acetamido-7α,12α-diacetoxy-5β-cholane] | 126/116/126 | 126/116/126 | 126/116/126 | – |
| CC(=O)N[C@@H]1CC[C@@]2(C)[C@@H](C1)C[C@@H](OC(C)=O)[C@@H]1[C@@H]2C[C@H](OC(C)=O)[C@]2(C)[C@@H]([C@H](C)CCCNCCCNc3ccnc4cc(Cl)ccc34)CC[C@@H]12 [Compound 37] | 55/114/51 | 55/114/51 | 55/114/51 | – |
| CC(=O)O[C@H]1C[C@H]2[C@@H]([C@H](OC(C)=O)C[C@@H]3C[C@H](NS(C)(=O)=O)CC[C@@]32C)[C@@H]2CC[C@H]([C@H](C)CCCNCCNc3ccnc4cc(Cl)ccc34)[C@@]12C [Compound 38] | 131/301/222 | 131/301/222 | 131/301/222 | – |
| CC(=O)O[C@H]1C[C@H]2[C@@H]([C@H](OC(C)=O)C[C@@H]3C[C@H](NS(C)(=O)=O)CC[C@@]32C)[C@@H]2CC[C@H]([C@H](C)CCCNCCCNc3ccnc4cc(Cl)ccc34)[C@@]12C [Compound 39] | 130/119/147 | 130/119/147 | 130/119/147 | – |
| CC(=O)O[C@H]1C[C@H]2[C@@H]([C@H](OC(C)=O)C[C@@H]3C[C@H](NC(=O)OC(C)(C)C)CC[C@@]32C)[C@@H]2CC[C@H]([C@H](C)CCCNCCNc3ccnc4cc(Cl)ccc34)[C@@]12C [Compound 40, 24-N-[(7-Chloroquinoline-4-yl)amino]ethylamino-3α-N′-tert-butylcarbamate-7α,12α-diacetoxy-5β-cholane] | 1743/531/464 | 1743/531/464 | 1743/531/464 | – |
| CC(=O)O[C@H]1C[C@H]2[C@@H]([C@H](OC(C)=O)C[C@@H]3C[C@H](NS(C)(=O)=O)CC[C@@]32C)[C@@H]2CC[C@H]([C@H](C)CCCN(C)CCNc3ccnc4cc(Cl)ccc34)[C@@]12C [Compound 42, 24-N-Methyl-N-[(7-chloroquinoline-4-yl)amino]ethylamino-3α-methanesulfonamide-7α,12α-diacetoxy-5β-cholane] | 1194/2707/2197 | 1194/2707/2197 | 1194/2707/2197 | – |
| CC(=O)O[C@H]1C[C@H]2[C@@H]([C@H](OC(C)=O)C[C@@H]3C[C@H](NC(=O)OC(C)(C)C)CC[C@@]32C)[C@@H]2CC[C@H]([C@H](C)CCCN(C)CCNc3ccnc4cc(Cl)ccc34)[C@@]12C [Compound 44, 24-N-Methyl-N-[(7-chloroquinoline-4-yl)amino]ethylamino-3α-N′-tert-butylcarbamate-7α,12α-diacetoxy-5β-cholane] | 293/264/144 | 293/264/144 | 293/264/144 | – |
| CC(=O)O[C@H]1C[C@H]2[C@@H]([C@H](OC(C)=O)C[C@@H]3C[C@H](N(C)C)CC[C@@]32C)[C@@H]2CC[C@H]([C@H](C)CCCNCCCNc3ccnc4cc(Cl)ccc34)[C@@]12C [Compound 51] | 382/137/156 | 382/137/156 | 382/137/156 | – |
| CC(=O)O[C@H]1C[C@H]2[C@@H]([C@H](OC(C)=O)C[C@@H]3C[C@H](N)CC[C@@]32C)[C@@H]2CC[C@H]([C@H](C)CCCNCCNc3ccnc4cc(Cl)ccc34)[C@@]12C [Compound 52, 24-N-[(7-Chloroquinoline-4-yl)amino]ethylamino-3α-amino-7α,12α-diacetoxy-5β-cholane] | – | – | – | 5.42 |
| CC(=O)O[C@H]1C[C@H]2[C@@H]([C@H](OC(C)=O)C[C@@H]3C[C@H](N)CC[C@@]32C)[C@@H]2CC[C@H]([C@H](C)CCCNCCCNc3ccnc4cc(Cl)ccc34)[C@@]12C [Compound 53] | 54/75/43 | 54/75/43 | 54/75/43 | – |
| CC(=O)O[C@H]1C[C@H]2[C@@H]([C@H](OC(C)=O)C[C@@H]3C[C@H](N)CC[C@@]32C)[C@@H]2CC[C@H]([C@H](C)CCCN(C)CCCNc3ccnc4cc(Cl)ccc34)[C@@]12C [Compound 55] | 45/44/50 | 45/44/50 | 45/44/50 | – |
| CC(=O)O[C@H]1C[C@H]2[C@@H]([C@H](OC(C)=O)C[C@@H]3C[C@H](N)CC[C@@]32C)[C@@H]2CC[C@H]([C@H](C)CCCN(CCC[C@@H](C)[C@H]3CC[C@H]4[C@@H]5[C@H](OC(C)=O)C[C@@H]6C[C@H](N)CC[C@]6(C)[C@H]5C[C@H](OC(C)=O)[C@]34C)CCNc3ccnc4cc(Cl)ccc34)[C@@]12C [Compound 60, N,N-Di(3α-amino-7α,12α-diacetoxy-5β-cholan-24-yl)-N′-(7′-chloroquinoline-4′-yl)-1,3-ethanediamine] | 21/19/19 | 21/19/19 | 21/19/19 | – |
